Tests used:
[1] = tested on: BALB/c cells (primary peritoneal macrophages); experiment: Cell survival by crystal violet staining, BALB/c cells; assay type: cell-based; conditions: BALB/c cells
Procedure: (§1) Treatment of primary macrophages and RAW 264.7 cells. […] Following 3 h incubation, at 37 C, 5% CO2 (macrophages were allowed to attach) cells were stimulated with LPS (0.5 μg/ml) and IFN-γ (100 U/ml) in the absence or presence of various concentrations of ILK inhibitors (all treatments were replicated six times). Cells were incubated for an additional 24 h, and cell free culture supernatants from each well were collected for NO and cytokine determination. The remaining cells were stained with crystal violet to determine effect of the inhibitors on cell survival.
(§2) Effect of ILK Inhibitors on suppression of NO production and cell survival. Twenty-four hours following treatment with the ILK inhibitors, aliquots from the cell-free supernatants were assayed for NO and IL-6 release. Surviving cells were stained and fixed (crystal violet 0.05% in 20% ethanol), to determine if the decrease in NO production was related to a decrease in cell number due to toxicity of the compounds.

[2] = tested on: C57BL/6 cells (primary peritoneal macrophages); experiment: Cell survival by crystal violet staining, C57BL/6 cells; assay type: cell-based
Procedure: as §1, §2

[3] = tested on: C57BL/6 cells (primary peritoneal macrophages); experiment: LPS-IFN-γ-induced macrophage NO production (Griess nitrite assay), C57BL/6 cells; assay type: cell-based, mouse
Procedure: (§3) Isolation of primary mouse macrophages. Peritoneal exudate macrophages were isolated by peritoneal lavage with ice-cold sterile physiological saline 24 h after intraperitoneal injection of BALB/c and CB57BL/6 mice with 0.3 ml of sterile Zymosan A (1 mg/0.5 ml 0.9% saline). Cells were washed, resuspended in RPMI 1640 supplemented with 2 mM L-glutamine, 100 units/ml penicillin, 100 μg/ml streptomycin, and 5% FBS.
(§4) Treatment of primary macrophages and RAW 264.7 cells. Primary macrophages (1.5×10^5 cells/well) and RAW 264.7 (4×10^4 cells/well) cells were grown in 96-well plates (nitrite assay), or 6-well plates (2×10^6 cells/well) for measurement of iNOS and COX-2 expression. Following 3 h incubation, at 37 C, 5% CO2 (macrophages were allowed to attach) cells were stimulated with LPS (0.5 μg/ml) and IFN-γ (100 U/ml) in the absence or presence of various concentrations of ILK inhibitors (all treatments were replicated six times). Cells were incubated for an additional 24 h, and cell free culture supernatants from each well were collected for NO and cytokine determination. The remaining cells were stained with crystal violet to determine effect of the inhibitors on cell survival.
(§5) NO production. Following stimulation, the production of NO was determined by assaying culture supernatants for NO2^−, a stable reaction product of NO with molecular oxygen. Briefly, 100 μl of culture supernatant was reacted with an equal volume of Griess reagent at room temperature for 10 min. The absorbance at 550 nm was determined. All measurements were performed six times. The concentration of NO2^−was calculated by comparison with a standard curve prepared using NaNO2.
(§6) Effects of ILK inhibitors on LPS-IFN-γ-induced NO release. […] […] To compare the effect of the compounds across three different cell types, the NO release for each cell type was expressed relative to DMSO treated cells. […] For example, macrophages from Balb/c and C57BL/6 mice responded similarly to the treatment with the compounds.

[4] = tested on: BALB/c cells (primary peritoneal macrophages); experiment: LPS-IFN-γ-induced macrophage NO production (Griess nitrite assay), BALB/c cells; assay type: cell-based, mouse
Procedure: as §3, §4, §5, §6

[5] = tested on: RAW 264.7 cells; experiment: LPS-IFN-γ-induced macrophage NO production (Griess nitrite assay), RAW 264.7 cells; assay type: cell-based, murine
Procedure: RAW 264.7 cells. RAW 264.7 cells, a murine macrophage cell line, were obtained from American Type Culture Collection (ATCC, Manassas, Va.) and cultured in DMEM supplemented with 10% FCS. Each treatment was performed in triplicate wells. RAW 264.7 cells (Balb/c background) produce a significant amount of nitric oxide upon treatment with IFN-γ alone, but require LPS for full activation. This property makes their behavior more like that of normal macrophages obtained from commonly used strains of mice.
as §1, §5
Effects of ILK inhibitors on LPS-IFN-γ-induced NO release. […] […] To compare the effect of the compounds across three different cell types, the NO release for each cell type was expressed relative to DMSO treated cells.

[6] = tested on: RAW 264.7 cells; experiment: Cell survival by crystal violet staining, RAW 264.7 cells; assay type: cell-based
Procedure: as §4
as §2, with “compounds. […] Only those compounds that induced strong inhibition of NO release, and caused no significant cell death were selected for further evaluation.” for “compounds.”

[7] = tested on: COX-2; experiment: COX-2 protein expression in LPS-IFN-γ stimulated macrophages (western blot); assay type: cell-based, murine; conditions: Macrophages, LPS-INF-γ stimulated
Procedure: (§7) Western blot analysis. After incubation with the indicated stimuli in the presence of ILK inhibitors, cells (duplicate samples, 2×10^6cell/6-wells plate) were washed in PBS and lysed on ice in 60 μl of lysis buffer. The protein content of each sample was determined using the Bradford protein assay kit (Bio-Rad, Richmond, Calif.). Absorbance was measured at 750 nm with a Beckman DU530 spectrophotometer (Palo Alto, Calif.). Proteins were mixed with 45×SDS sample buffer. Following separation of proteins by SDS-PAGE, using 8% bis-acrylamide in the separation gel, the proteins were transferred from the gels onto PVDF membranes using a MiniProtean III Cell (Bio-Rad), at 100 V for 1.5 h. Equal amounts of protein (5 μg) were loaded onto SDS-PAGE gels and examined by Western blot analysis with anti-Actin, anti-iNOS, anti-COX-2 murine monoclonal antibodies according to the manufacturers specifications (Transduction Laboratories). […] The Multi-Analyst/PC system from Biorad is being used to quantitate the bands of the expressed protein on the film. […] White light is chosen as the selected light source, thus the signal strength is measured in OD (optic density) units. […]
(§8) Effects of ILK inhibitors on the LPS-IFN-γ-induced iNOS and COX-2 expression NO production requires that iNOS be enzymatically activity, therefore experiments were performed to examine whether the inhibitory effect of ILK inhibitors was mediated by […] iNOS protein synthesis or effects on the activity of existing enzyme. Stimulated cells were treated with ILK inhibitors (25 μM), and lysed 16 h later and a western blot analysis was performed to quantitate iNOS protein expression. […]
Nitric oxide and Prostaglandin E2 are two pleiotropic mediators produced at inflammatory sites by the inducible enzymes iNOS and cyclooxygenase-2 (COX-2), respectively. […] Finally, we evaluated the in-vitro effects of compounds on production of MCP-1 chemokine by TNF-α stimulated HUVEC cells. […]

[8] = tested on: LPS-IFN-γ stimulated macrophages; experiment: NO production of LPS-IFN-γ stimulated macrophages (cell type not specified; dose response, Table 2 and second Table 3); assay type: cell-based, murine; conditions: LPS-INF-γ stimulated
Procedure: as §1, §5

[9] = tested on: IL-6 release in macrophages; experiment: LPS-IFN-γ-induced IL-6 release in macrophages (ELISA); assay type: cell-based, murine
Procedure: as §4
Enzyme immunoassays for mouse IL-6. IL-6 levels were determined with PharMingen's OptElA ELISA set developed using an anti-mouse IL-6 Ab pair and mouse rIL-6 standard (PharMingen). Maxisorp F16 multiwell strips (Nunc, Roskilde, Denmark) were coated with anti-mouse IL-6 capture Ab (at recommended concentration) in 0.1 M NaHCO3, pH 9.5, 100 μl/well, overnight at 4° C. Plates were washed three times with 0.05% Tween 20 in PBS (PBST) and blocked for 1 h at room temperature with 200 μl/well of 10% FCS in PBS (blocking and dilution buffer). […] Absorbance was read at 450 nm with an EL 312e microplate reader. […]

[10] = tested on: iNOS; experiment: iNOS protein expression in LPS-IFN-γ stimulated macrophages (western blot); assay type: cell-based, murine; conditions: Macrophages, LPS-INF-γ stimulated
Procedure: as §7, with “Laboratories). Primary Abs, in 5% blocking buffer (5% NFM/TTBS), were incubated with blots 2 h or overnight at 4° C., followed by incubation with peroxidase-conjugated secondary antibody. Chemiluminescence substrates were used to reveal positive bands. The bands were exposed on x-ray films.” for “Laboratories).”
as §8

[11] = tested on: HUVEC cells; experiment: In vitro Matrigel morphogenesis (tube formation) assay of VEGF stimulated HUVEC cells; assay type: cell-based, human; conditions: 100 mM (so in the source)
Procedure: In Vitro Angiogenesis. […] After 5 hours of incubation in a 5% CO2-humidified atmosphere at 37 °C, the three-dimensional organization of the cells was examined using an inverted photomicroscope. The cells were fixed with Crystal Violet (0.05% in 20% ethanol) and digitally photographed.
To determine the anti-angiogenic properties of ILK inhibitors, an in vitro Matrigel morphogenesis assay was established. This assay evaluates the ability of endothelial cells to differentiate into capillary-like structures, a crucial step during neovascularization. HUVEC cells when stimulated with VEGF and seeded onto Matrigel rapidly attach to the matrix and begin to migrate and interact with the extracellular matrix proteins present in the Matrigel. […] These capillary-like structures can be assessed by histology (FIG. 2). Samples are cut on a cross section and subsequent viewed using an electron microscope. Typically, cylindrical formations with a lumen are observed. A distinct difference in the morphology of tube formation on Matrigel, compared to other in vitro angiogenesis assays is a reduction in the proliferation of endothelial cells. […] Using this model system, both inhibitors and stimulators of angiogenesis can be assessed prior to in vivo testing.
The assay was established and reproducibility confirmed. SU5416, shown to inhibit angiogenesis in other assays, was also evaluated. […]

Compound	Survival (%) ([1]; 0.5 mM)	Survival (%) ([1]; 1 mM)	Survival (%) ([2]; 0.5 mM)	Survival (%) ([2]; 1 mM)	NO inhibition (%) ([3]; 0.5 mM)	NO release (%) ([3]; 0.5 mM)	NO inhibition (%) ([3]; 1 mM)	NO release (%) ([3]; 1 mM)	NO inhibition (%) ([4]; 0.5 mM)	NO release (%) ([4]; 0.5 mM)	NO inhibition (%) ([4]; 1 mM)	NO release (%) ([4]; 1 mM)	NO inhibition (%) ([5]; 0.5 mM)	NO release (%) ([5]; 0.5 mM)	NO inhibition (%) ([5]; 1 mM)	NO release (%) ([5]; 1 mM)	Survival (%) ([6]; 0.5 mM)	Survival (%) ([6]; 1 mM)	further results
C[C@@H]1C[C@H]2[C@@H]3CCC4=CC(=O)C=C[C@]4(C)[C@@]3(F)[C@@H](O)C[C@]2(C)[C@@]1(O)C(=O)CO [Dex, Dexamethasone]	84%	73%	87%	68%	32%	67.9%	53%	46.6%	28%	60.6%	36%	46.7%	−6%	103.6%	−9%	87.1%	98%	80%	–
CNC(=N)NCCC[C@H](N)C(=O)O [L-NMMA, N^G-Monomethyl-L-arginine]	97%	94%	97%	99%	92%	8.3%	99%	1.1%	92%	7.9%	97%	3.1%	52%	44.2%	63%	31.7%	92%	86%	–
NC1=NN=C(N)C1/N=N/c1ccc(F)c(C(F)(F)F)c1 [4-[(4-fluoro-3-trifluoromethylphenyl)hydrazono]-4H-pyrazole-3,5-diamine]	–	–	–	–	–	–	–	–	–	–	–	–	–	–	–	–	–	–	COX-2 (%) [7]: 67%; NO (%) [8]: 74%; inhibition at 25 µM ([9]; Mus musculus, Macrophage, 25 μM, 24 h, LPS (0.5 μg) IFN-γ (100 U)): 63%; INOS (%) [10]: 88%
Cc1cc(C)c(/C=C2\C(=O)Nc3ccccc32)[nH]1 [SU5146, reference compound]	–	–	–	–	–	–	–	–	–	–	–	–	–	–	–	–	–	–	Effect on endothelial cell morphogenesis (in words) [11]: did not affect endothelial cell morphogenesis
C[C@]12CCC(=O)C=C1CC[C@@H]1[C@@H]2[C@@H](O)C[C@@]2(C)[C@H]1CC[C@]2(O)C(=O)CO [hydrocortisone, Hydrocortisone, reference compound]	–	–	–	–	–	–	–	–	–	–	–	–	–	–	–	–	–	–	Effect on IL-6 release (in words) ([9]; 50 μM, added at the onset of the culture): moderately suppressed IL-6 release
